According to patent US12589087B2, “Enantiomer selective action on neurotransmission” (The Board of Trustees of the Leland Stanford Junior …, priority 2021, dated 2026):

Tests used:
GABAB nonsel = assay: radioligand binding inhibition assay; settings: rat, 100 μM
Experimental: (§1) Nonspecific AMPA, kainate and NMDA binding assays were performed by Eurofins Discovery (Cerep) using rat cerebral cortex membranes and radiolabeled [^3H]AMPA, [^3H]kainic acid and [^3H]CGP 39653, respectively. All compounds were tested at a single concentration of 100 uM in triplicate. mGluR1, mGluR2, mGluR5 and GABAB binding assays were performed by Eurofins Discovery. mGluR1 assay was performed using rat cerebellum membranes and radiolabeled [^3H]quisqalic acid. mGluR2 assay was performed using recombinant Chem-1 cells and [^3H]LY341495. mGluR5 and GABAB binding assays were performed using recombinant CHO-K1 cells and […], respectively. All compounds were tested at a single concentration of 100 uM in triplicate.

[1] = molecular target: T1, human glutamine synthetase (Homo sapiens, UniProt P15104); assay: Catalysis of 2MeGlu C5-amidation by glutamine synthetase; type: biochemical
T1 construct: purchased Abcam ab222354
T1 sequence (P15104 whole entry): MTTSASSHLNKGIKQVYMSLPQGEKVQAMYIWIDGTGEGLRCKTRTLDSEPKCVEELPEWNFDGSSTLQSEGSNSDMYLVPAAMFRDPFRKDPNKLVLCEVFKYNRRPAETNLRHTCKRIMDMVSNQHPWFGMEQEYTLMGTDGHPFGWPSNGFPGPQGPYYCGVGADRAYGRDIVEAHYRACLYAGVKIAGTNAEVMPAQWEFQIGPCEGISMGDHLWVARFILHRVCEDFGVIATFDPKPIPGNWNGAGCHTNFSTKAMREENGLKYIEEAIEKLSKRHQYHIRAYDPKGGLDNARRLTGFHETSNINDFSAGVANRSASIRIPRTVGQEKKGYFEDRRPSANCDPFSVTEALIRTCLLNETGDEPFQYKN
Experimental: The procedure was adapted from an existing protocol. To a reaction mixture in a 1.5 mL microcentrifuge tube containing 10 mM substrate, 10 mM ATP, 20 mM MgCl2, 40 mM NH4Cl, 25 mM 2-mercaptoethanol in 100 mM imidazole-HCl buffer pH 7.0, recombinant human glutamine synthetase (final concentration: 5 ng/mL) was added. The tubes were incubated in a preheated thermomixer at 37° C. and shaken at 600 rpm (30 s on, 30 s off). 5 μL aliquots were collected in triplicate every 5 min and immediately diluted with 195 μL of cold 60% ACN containing 10 μM Glu-d5 and Gln-d5 as internal standards in a 96 well plate. After collecting all samples, 200 μL of ACN was added to all wells and the plate was shaken at 1000 rpm for 5 min at room temperature, and then stored at −80° C. until analysis.

mGluR1 = assay: radioligand binding assay, cerebellum membranes; settings: mGluR1, rat; 100 μM
Experimental: as §1
(§2) All receptor assays were performed exactly as described in Example 1. Functional assays of all GABAA, NMDA (GluN2A-GluN2D) and AMPA (GluA2) receptor subunits were performed by SB Drug Discovery as a part of their CNS discovery panel using FLIPR technology. All compounds were tested at 7 concentrations in triplicate and EC50/IC50 was determined where applicable. Functional GABAB assay was performed by Eurofins Discovery (Cerep) using Ca^2+-dependent fluorimetry in RBL cells expressing human GABAB (B1/B2) receptor. All compounds were tested at a single concentration of 100 uM in triplicate. […]

mGluR5 = molecular target: T2, mGluR5 (Homo sapiens, UniProt P41594); assay: radioligand binding assay, recombinant CHO-K1 cells
T2 construct: host or cells: CHO-K1 cells
T2 sequence (P41594 21-1212): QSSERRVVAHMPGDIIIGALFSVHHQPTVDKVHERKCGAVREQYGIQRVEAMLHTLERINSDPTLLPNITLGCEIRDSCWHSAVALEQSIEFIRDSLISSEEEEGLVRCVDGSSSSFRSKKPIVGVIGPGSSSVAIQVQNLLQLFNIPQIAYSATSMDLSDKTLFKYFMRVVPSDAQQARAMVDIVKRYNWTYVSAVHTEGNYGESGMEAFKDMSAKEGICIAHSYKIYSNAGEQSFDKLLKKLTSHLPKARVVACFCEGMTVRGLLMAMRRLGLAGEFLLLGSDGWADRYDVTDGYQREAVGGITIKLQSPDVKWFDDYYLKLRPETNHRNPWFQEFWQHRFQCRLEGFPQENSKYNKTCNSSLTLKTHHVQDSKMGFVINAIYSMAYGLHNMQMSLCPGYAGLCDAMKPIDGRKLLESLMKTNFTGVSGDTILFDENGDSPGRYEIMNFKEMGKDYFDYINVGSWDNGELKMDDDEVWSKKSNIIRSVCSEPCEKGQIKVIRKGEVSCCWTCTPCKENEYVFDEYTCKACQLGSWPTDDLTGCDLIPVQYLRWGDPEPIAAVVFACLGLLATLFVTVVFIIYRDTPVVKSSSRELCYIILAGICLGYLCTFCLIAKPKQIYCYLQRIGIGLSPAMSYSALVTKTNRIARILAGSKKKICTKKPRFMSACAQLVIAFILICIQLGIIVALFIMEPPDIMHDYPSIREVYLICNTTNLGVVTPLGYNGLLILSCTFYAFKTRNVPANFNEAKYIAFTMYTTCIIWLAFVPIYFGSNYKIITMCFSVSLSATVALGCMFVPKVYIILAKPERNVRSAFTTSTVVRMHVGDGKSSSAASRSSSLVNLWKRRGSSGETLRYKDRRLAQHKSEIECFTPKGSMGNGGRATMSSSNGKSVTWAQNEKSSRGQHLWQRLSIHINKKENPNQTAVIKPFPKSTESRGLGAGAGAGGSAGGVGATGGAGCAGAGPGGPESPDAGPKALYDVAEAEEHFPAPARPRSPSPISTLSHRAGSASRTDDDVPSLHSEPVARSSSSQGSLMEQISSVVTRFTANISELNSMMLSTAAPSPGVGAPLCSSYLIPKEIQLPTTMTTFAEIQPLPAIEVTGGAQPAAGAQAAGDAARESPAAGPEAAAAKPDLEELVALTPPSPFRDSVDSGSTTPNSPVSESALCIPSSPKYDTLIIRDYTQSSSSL
Experimental: as §1
All receptor assays were performed exactly as described in Example 1. Functional assays of all GABAA, NMDA (GluN2A-GluN2D) and AMPA (GluA2) receptor subunits were performed by SB Drug Discovery as a part of their CNS discovery panel using FLIPR technology. All compounds were tested at 7 concentrations in triplicate and EC50/IC50 was determined where applicable. Functional GABAB assay was performed by Eurofins Discovery (Cerep) using Ca^2+-dependent fluorimetry in RBL cells expressing human GABAB (B1/B2) receptor. All compounds were tested at a single concentration of 100 uM in triplicate. Nonspecific AMPA, kainate and NMDA binding assays were performed by Eurofins Discovery (Cerep) using rat cerebral cortex membranes and radiolabeled [^3H]AMPA, [^3H]kainic acid and [^3H]CGP 39653, respectively. All compounds were tested at a single concentration of 100 uM in triplicate. mGluR1, mGluR2, mGluR5 and GABAB binding assays were performed by Eurofins Discovery. All compounds were tested at a single concentration of 100 uM in triplicate.

kainate nonspecific = assay: radioligand binding assay, cerebral cortex membranes, [3H]kainic acid; settings: kainate nonspec, rat; 100 μM
Experimental: as §1, §2

C57Bl/6 mice = type: in vivo; settings: for distance moved in the novel cage: single 100, 300, or 900 mg/kg IP, dose- and time-dependent
Experimental: Dosing: (R)-2MeGlu (30, 100, 300, or 900 mg/kg), (S)-2MeGlu (30, 100, 300, or 900 mg/kg), rac-2MeGln (30, 100, 300, or 900 mg/kg) and vehicle (PBS) were administered at 10 ml/kg IP dosing volume. Three mice were dosed once with the assigned drug (100, 300, or 900 mg/kg) or vehicle and immediately placed in a new cage for novel cage observation. Subsequently, six mice were dosed once with the assigned drug (30 or 100 mg/kg) or vehicle and tested by SHIRPA, activity chamber, and then hot plate tests.
The mouse was dosed and immediately placed in the center of a clean, Innovive disposable rat cage with bedding (dimensions: 17″L×13.4″W×7.8″H) and allowed to move freely while being tracked automatically. Mice were monitored with Ethovision XT tracking software for the distance moved and average velocity during the 60-minute trial. They were returned to their home cage after the test. A new cage was used for each mouse.
Exploratory behavioral tests were performed exactly as previously described by us using 2-month-old C57Bl/6 male mice, Example 1. First, we assessed safety and tolerability of acute exposure to 4APA enantiomers in 22 mice by novel cage observation at 100, 300, or 900 mg/kg IP compared to vehicle (PBS) IP (n=3 or 4 mice per group without sample calculation, based on our previous study. Next, we evaluated 24 drug naïve mice with a 23-measure battery of neurologic dysfunction in mice (SHIRPA) (Rogers et al., 2001), automated activity chamber assessment, and hot plate latency acutely following 30 or 100 mg/kg IP compared to vehicle IP (n=4 or 5 mice per group). No exclusion criteria were predetermined and no randomization was performed to allocate subjects in the study.

GABAB (B1/B2) = molecular target: T3, GABAB (B1/B2) (Homo sapiens, UniProt Q9UBS5); assay: functional assay, Ca2+-dependent fluorimetry in RBL cells; type: cell-based; settings: 100 μM
T3 construct: host or cells: RBL cells
T3 sequence (Q9UBS5 20-961): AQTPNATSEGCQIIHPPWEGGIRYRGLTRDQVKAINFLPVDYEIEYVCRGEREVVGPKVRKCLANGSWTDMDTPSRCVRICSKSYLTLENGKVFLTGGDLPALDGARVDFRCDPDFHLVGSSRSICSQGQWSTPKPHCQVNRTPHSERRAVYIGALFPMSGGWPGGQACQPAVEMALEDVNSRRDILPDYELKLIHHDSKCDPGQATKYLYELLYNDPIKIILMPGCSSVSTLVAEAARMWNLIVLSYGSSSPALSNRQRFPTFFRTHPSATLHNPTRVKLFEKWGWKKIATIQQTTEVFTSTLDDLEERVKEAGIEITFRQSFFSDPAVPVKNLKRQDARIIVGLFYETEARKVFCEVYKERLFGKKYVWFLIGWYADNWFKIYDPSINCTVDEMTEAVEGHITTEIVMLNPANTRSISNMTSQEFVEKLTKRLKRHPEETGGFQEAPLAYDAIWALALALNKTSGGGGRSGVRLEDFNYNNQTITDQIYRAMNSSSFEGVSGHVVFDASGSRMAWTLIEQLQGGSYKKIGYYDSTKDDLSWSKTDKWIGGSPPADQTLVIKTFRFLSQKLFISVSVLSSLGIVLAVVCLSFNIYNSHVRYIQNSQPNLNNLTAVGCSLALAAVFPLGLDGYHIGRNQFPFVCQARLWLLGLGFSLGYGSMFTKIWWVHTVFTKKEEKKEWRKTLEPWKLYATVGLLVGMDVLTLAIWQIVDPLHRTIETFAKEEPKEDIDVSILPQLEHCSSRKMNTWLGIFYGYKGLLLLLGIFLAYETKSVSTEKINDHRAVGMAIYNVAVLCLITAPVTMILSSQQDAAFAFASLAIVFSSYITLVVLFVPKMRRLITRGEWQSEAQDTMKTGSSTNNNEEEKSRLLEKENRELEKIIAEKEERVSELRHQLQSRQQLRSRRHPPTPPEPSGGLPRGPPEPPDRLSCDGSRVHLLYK
T3 sequence (O75899 42-941 partner): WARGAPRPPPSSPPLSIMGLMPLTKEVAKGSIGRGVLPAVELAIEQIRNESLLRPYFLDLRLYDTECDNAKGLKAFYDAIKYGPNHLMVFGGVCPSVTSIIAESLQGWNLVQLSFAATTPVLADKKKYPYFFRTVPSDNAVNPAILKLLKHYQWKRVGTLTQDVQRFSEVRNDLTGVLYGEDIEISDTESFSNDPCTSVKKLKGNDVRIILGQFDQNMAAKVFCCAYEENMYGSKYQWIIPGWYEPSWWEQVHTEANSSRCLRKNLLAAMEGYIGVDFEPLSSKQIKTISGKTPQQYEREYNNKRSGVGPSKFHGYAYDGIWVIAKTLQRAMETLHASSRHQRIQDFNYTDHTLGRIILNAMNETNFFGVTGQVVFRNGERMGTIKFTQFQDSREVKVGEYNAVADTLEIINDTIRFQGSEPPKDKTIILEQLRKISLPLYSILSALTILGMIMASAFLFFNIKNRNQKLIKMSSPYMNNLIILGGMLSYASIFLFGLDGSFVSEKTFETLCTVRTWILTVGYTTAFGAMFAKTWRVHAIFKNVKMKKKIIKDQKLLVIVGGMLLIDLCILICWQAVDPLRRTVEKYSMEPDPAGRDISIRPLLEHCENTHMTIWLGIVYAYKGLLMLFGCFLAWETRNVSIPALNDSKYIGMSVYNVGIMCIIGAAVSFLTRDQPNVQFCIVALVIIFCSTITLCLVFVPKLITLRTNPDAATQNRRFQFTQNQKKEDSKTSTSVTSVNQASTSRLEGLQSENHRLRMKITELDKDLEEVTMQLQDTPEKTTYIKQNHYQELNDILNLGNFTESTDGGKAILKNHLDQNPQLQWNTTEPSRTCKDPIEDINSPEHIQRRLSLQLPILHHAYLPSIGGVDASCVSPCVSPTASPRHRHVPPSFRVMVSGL
Experimental: Functional assays of all GABAA, NMDA (GluN2A-GluN2D) and AMPA (GluA2) receptor subunits were performed by SB Drug Discovery as a part of their CNS discovery panel using FLIPR technology. Briefly, receptor-expressing HEK 293 cell lines were incubated in a red membrane potential dye in HEPES:HBSS pH 7.4 buffer and the fluorescence (λex: 488, λex: 510-570) was monitored over time as the test compounds and/or reference compounds were added to the solution. In agonist assay, only test compounds were added. In positive allosteric modulator assay, cells were preincubated with test compounds and then low concentration (approximately EC20) of an appropriate agonist was added. In antagonist assay, cells were preincubated with test compounds and then high concentration (approximately EC80) of an appropriate agonist was added. For GABAA assays, GABA was used as the agonist, picrotoxin was used as the reference antagonist and allopregnanolone was used as the reference positive allosteric modulator (PAM). […] All compounds were tested at 7 concentration points in triplicate and EC50/IC50 was determined where applicable. […]
All receptor assays were performed exactly as described in Example 1. […] All compounds were tested at 7 concentrations in triplicate and EC50/IC50 was determined where applicable. […]

C[C@@](N)(CCC(=O)O)C(=O)O [(R)-2MeGlu, (R)-2-methylglutamic acid]
% of radioligand binding inhibition (GABAB nonsel): 5% | substrate of GS (amidation to 2MeGln) [1]: not a substrate | % of radioligand binding inhibition (mGluR1): −3% | inhibition at 100 µM (mGluR5; first mGluR5 row of Table 5): -20% | inhibition at 100 µM (mGluR5; second mGluR5 row of Table 5): -2% | % of radioligand binding inhibition (kainate nonspecific): 18% | mortality after single dose (C57Bl/6 mice; mouse, in vivo): one mouse died | distance moved in the novel cage (C57Bl/6 mice): significantly decreased | % of agonist response (GABAB (B1/B2)): 0%

C[C@](N)(CCC(=O)O)C(=O)O [(S)-2MeGlu, (S)-2-methylglutamic acid]
% of radioligand binding inhibition (GABAB nonsel): 5% | substrate of GS (amidation to 2MeGln) [1]: substrates | % of radioligand binding inhibition (mGluR1): 6% | inhibition at 100 µM (mGluR5; first mGluR5 row of Table 5): 11% | inhibition at 100 µM (mGluR5; second mGluR5 row of Table 5): -4% | % of radioligand binding inhibition (kainate nonspecific): 20% | distance moved in the novel cage (C57Bl/6 mice): significantly decreased | % of agonist response (GABAB (B1/B2)): 0%
